Measurements taken from patent publication US20080108569A1, “Compositions and Methods for Treating Diseases Associated With Phlpp” (The Regents of the University of California, priority 2005, published 2008).

Tests used:
PHLPP-1α = molecular target: T1, PHLPP-1α (Homo sapiens, UniProt O60346); assay: okadaic acid sensitivity of PHLPP-1α mediated dephosphorylation of Akt at Ser473 in 293T cells; assay type: cell-based; settings: OA 1 μM for 15 minutes, 293T cells transfected with HA-PHLPP-1α
T1 construct: The full-length human PHLPP-1α cDNA was cloned by combining the following cDNA fragments; expressed in transfected cells; host or cells: 293T cells
T1 sequence (O60346 1-1205 isoform O60346-2): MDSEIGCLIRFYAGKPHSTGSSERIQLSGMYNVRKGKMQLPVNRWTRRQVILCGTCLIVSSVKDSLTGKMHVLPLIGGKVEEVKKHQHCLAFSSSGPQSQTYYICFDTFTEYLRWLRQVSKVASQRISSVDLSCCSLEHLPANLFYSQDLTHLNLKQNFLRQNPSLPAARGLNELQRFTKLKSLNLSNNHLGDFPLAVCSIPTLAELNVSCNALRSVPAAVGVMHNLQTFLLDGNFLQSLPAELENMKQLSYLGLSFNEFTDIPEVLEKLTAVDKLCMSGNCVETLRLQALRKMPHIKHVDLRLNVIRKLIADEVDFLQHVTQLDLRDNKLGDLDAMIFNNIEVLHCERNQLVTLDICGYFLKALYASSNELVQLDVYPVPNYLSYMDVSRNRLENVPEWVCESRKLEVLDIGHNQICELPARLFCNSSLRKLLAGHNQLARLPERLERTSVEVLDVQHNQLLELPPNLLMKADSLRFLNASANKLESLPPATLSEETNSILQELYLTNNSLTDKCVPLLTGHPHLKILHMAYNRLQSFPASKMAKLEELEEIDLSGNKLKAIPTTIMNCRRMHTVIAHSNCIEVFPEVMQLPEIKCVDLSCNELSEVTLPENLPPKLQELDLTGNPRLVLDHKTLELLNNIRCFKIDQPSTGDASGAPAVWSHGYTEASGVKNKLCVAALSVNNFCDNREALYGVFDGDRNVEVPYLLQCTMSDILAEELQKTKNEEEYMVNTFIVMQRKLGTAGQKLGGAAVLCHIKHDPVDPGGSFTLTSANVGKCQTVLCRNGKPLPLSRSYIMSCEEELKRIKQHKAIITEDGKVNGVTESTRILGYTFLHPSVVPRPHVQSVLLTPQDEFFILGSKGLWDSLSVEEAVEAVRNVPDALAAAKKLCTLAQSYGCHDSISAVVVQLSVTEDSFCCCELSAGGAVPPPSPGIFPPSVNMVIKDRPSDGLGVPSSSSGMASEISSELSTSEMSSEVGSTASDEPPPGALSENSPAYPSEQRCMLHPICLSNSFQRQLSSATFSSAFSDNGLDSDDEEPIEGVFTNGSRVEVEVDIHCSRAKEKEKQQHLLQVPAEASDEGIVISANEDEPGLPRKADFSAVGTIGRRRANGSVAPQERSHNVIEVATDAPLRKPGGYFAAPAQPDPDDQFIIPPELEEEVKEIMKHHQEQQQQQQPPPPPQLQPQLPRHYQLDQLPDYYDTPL
Description: FIG. 29. PHLPP-1α mediated-dephosphorylation of Akt at Ser473 is okadaic acid-insensitive. 293T cells transfected with HA-PHLPP-1α were serum starved overnight. The cells were then left untreated (lane 1), treated with insulin (100 nM) for 30 minutes (lane 2), treated with insulin for 30 minutes followed by okadaic acid (OA, 1 μM) for 15 minutes (lane 3), or treated with insulin for 30 minutes followed by OA for 15 minutes followed by LY294002 (LY, 30 μM) for 20 minutes (lane 4). Western blots showing phosphorylation of endogenous Akt as detected by P308 and P473 antibodies. Total Akt was detected using the anti-Akt antibody.

MDA-MB-231 cells = assay: apoptosis assay, sub-2N DNA by flow cytometry; assay type: cell-based; settings: co-expressed with PHLPP2
Description: Apoptosis assays were performed as described previously (Brognard et al., 2001). Briefly, cells were transfected with different PHLPP expression constructs or siRNAs. In the case of gating for transfected cells, a GFP expression construct was co-transfected into the cells. Approximately 24 hours post-transfection, the cells were switched to low serum medium (DMEM plus 0.1% FBS) and allowed to grow for an additional 48 hours. For LY294002 (25 μM) treatment, the drug was added at the time when the cells were switched into the low serum medium. The cells were collected and stained with propidium iodide (25 μg/ml). Apoptotic cells were defined as sub-2N DNA containing cells. Quantification of apoptosis was obtained using flow cytometry analysis with a Becton Dickinson FACSort.
Apoptotic assays were performed as described above. To determine G1/S ratios, cells were co-transfected with GFP and HA-PHLPP2 and incubated under high serum (10% FBS) conditions for 48 hrs and cells were gated based on GFP expression as described above. For BrdU incorporation assays, cells were transfected with 100 nM siRNA (si-1) and incubated for 48 hrs prior to performing assay following manufacturers protocol (Oncogene Research Products).

Which “sensitivity of PHLPP-1α mediated dephosphorylation of Akt at Ser473” value (PHLPP-1α) does the source give for `C=C1[C@@H](O)[C@@H]2O[C@]3(CC[C@H](/C=C/[C@@H](C)[C@@H]4CC(C)=C[C@@]5(O[C@H](C[C@@](C)(O)C(=O)O)CC[C@H]5O)O4)O3)CC[C@H]2O[C@@H]1[C@@H](O)C[C@H](C)[C@H]1O[C@@]2(CCCCO2)CC[C@H]1C` [okadaic acid] here?
Its value is “insensitive”.

With “S473D: phosphomimetic and thus constitutively active Akt construct, resistant to dephosphorylation by PHLPP2” as the molecule, how does the “rescue of the apoptosis induced by PHLPP2” value (MDA-MB-231 cells) read?
Its value is “two-thirds”.
